Results on 1 compound are retold here after patent publication US20220074923A1, “METHODS OF IDENTIFYING PARKIN-MEDIATED MITOPHAGY ACTIVATING AGENTS” (THE GOVERNING COUNCIL OF THE UNIVERSITY OF TORONTO, priority 2018, published 2022).

Read-outs that look alike come from different tables or passages of the source.

Assay [1] has as its system HEK293 GFP Parkin cells. Kind of assay: High throughput small molecule screen for Parkin recruitment to mitochondria (high content imaging). It is filed as cell-based. Conditions: 4 μM, 16 h, then CCCP 2 h; rank out of 480; low rank = activator of Parkin recruitment, high rank = inhibitor. On the procedure:
10 uL of 0.1 mg/mL Poly-D-Lys solution was added to 384-well plates for 5 minutes, followed by a PBS wash. Plates were dried for at least 2 hours. 50 μL of 600 000 HEK293 GFP Parkin cell/mL of DMEM was dispensed into each well. After 24 hours incubation to allow the cells to adhere, 200 nL of small molecules (or DMSO in columns 1, 2, 23 and 24) were pinned. Following a 16-hour incubation, 200 nL of 5 mM CCCP were added to all wells except columns 1 and 2, into which 200 nL of DMSO was added. Following 2-hour incubation, cells were fixed with 4% paraformaldehyde (PFA) and stained with 50 μL of 1 μg/mL DAPI solution for 15 minutes. After the final PBS wash, plates were ready for high content microscopy.
Images were acquired on IN Cell Analyzer 6000 (GE Healthcare), equipped with sCMOS camera (2048×2048), and 20x/0.45 NA Plan Fluor objective (Nikon) in open aperture mode using 1×1 binning. Image analysis was performed using Columbus Image Analysis System (PerkinElmer). Nuclei were initially detected in DAPI channel, followed by whole cell segmentation in GFP channel. Using PhenoLOGIC machine learning plug-in, cells were split into 2 sub-populations: cells with even GFP-Parkin distribution and cells where GFP-Parkin was localized to mitochondria. The percentage of cells with mitochondrial GFP-Parkin was determined per well. The molecules were then rank ordered based on z-score, which is calculated using the formula: […]
where x is the percentage of cells with mitochondrial GFP-Parkin for a specific small molecule, μ is the average percentage of cells with mitochondrial Parkin in positive control columns 23 and 24, where cells are treated with CCCP only.
These cell lines were screened across 2 biological replicates with compounds from the kinase inhibitor (n=480) and Prestwick (n=1120) collections. The 3-day screening protocol consisted of (1) seeding cells, (2) pinning small molecules at 4 μM concentration and (3) inducing mitophagy with CCCP, followed by processing of plates for high content imaging. Following image acquisition, DAPI staining was used to segment cells within each image. Supervised machine learning was used to classify cells into two classes: (1) cells with cytosolic Parkin distribution and (2) those with Parkin localized to mitochondria. […] Compounds which increased the proportion of class 2 cells across 2 biological replicates, compared to the CCCP-only treated cells (FIG. 10), as indicated by their z-score (FIG. 11), were considered hits.

For assay [2], the system named is HeLa cells. Kind of assay: HK2 distribution after mitochondrial damage. Conditions: HeLa cells which lack endogenous Parkin. It is filed as cell-based. The text has this: Since HK2 is also a Parkin substrate, HeLa cells which lack endogenous Parkin were used to examine the effect of SR3677 treatment on HK2 distribution^43.
The subject of assay [3] is Drosophila. It is filed as in vivo. On the procedure: Fresh vials containing standard fly food supplemented with the indicated treatments were changed out every 2 days. The number of flies surviving each day was counted and log-rank tests were performed to determine statistical significance. 20 flies per treatment, n=5 (c) The climbing ability of flies treated as described in (a and bin) was assessed 4 days following initial administration of treatments. The number of flies to climb beyond 9.5 cm every 10 seconds was assessed. The percentage of flies in each treatment to cross this line was determined. The climbing ability of each treatment was normalized to the control group treated with water only. 20 flies per treatment, n=5. (d) The climbing ability of UAS-park^RNAi and ddc-GAL4>UAS-park^RNAi flies fed either paraquat or paraquat in combination with SR3677. 20 flies per treatment, n=7. (e) Proteins lysates from UAS-park^RNAi or tubulin>UAS-park^RNAi whole flies were separated by SDS-PAGE. Immunoblotting with anti-Parkin and anti-actin antibody was performed. (f) The climbing ability of TH-GAL flies fed either paraquat or paraquat in combination with SR3677. (g) Survival of heteroplasmic mt:Coll^T300l flies fed fly food supplemented with water or 2 mM SR3677 and wild-type Canton(S) flies (n=3 independent experiments). (h) The climbing ability of heteroplasmic mt:Coll^T300l flies fed either water or 2 mM SR3677 for 7 days. Log-rank tests were performed to determine p-values for survival analyses (a, b, g), *P<0.05. P-values were determined by one-tailed paired student's t-test for all climbing assays (c-e, h), *P<0.05. Data is expressed as mean±s.e.m. All error bars represent s.e.m
Male Canton(S) Drosophila were aged 7 days prior to feeding with standard fly food supplemented with water, 10 mM paraquat, 1 mM SR3677, or with combinations of these chemicals. Flies were placed into new vials containing fresh food supplemented with the treatments previously administered and 2 days later, climbing assays were performed. Flies were placed into plastic cylinder vials and tapped down, so all flies fell to the bottom. The number of flies to climb beyond 12.5 cm was counted every 10 s and values are represented as the percentage of total flies in each treatment group.

Assay [4] deals with ROCK2 (Homo sapiens, UniProt O75116). Conditions: biochemical and cell-based assays, previous studies; cited from earlier work.
ROCK2, sequence (O75116 whole entry): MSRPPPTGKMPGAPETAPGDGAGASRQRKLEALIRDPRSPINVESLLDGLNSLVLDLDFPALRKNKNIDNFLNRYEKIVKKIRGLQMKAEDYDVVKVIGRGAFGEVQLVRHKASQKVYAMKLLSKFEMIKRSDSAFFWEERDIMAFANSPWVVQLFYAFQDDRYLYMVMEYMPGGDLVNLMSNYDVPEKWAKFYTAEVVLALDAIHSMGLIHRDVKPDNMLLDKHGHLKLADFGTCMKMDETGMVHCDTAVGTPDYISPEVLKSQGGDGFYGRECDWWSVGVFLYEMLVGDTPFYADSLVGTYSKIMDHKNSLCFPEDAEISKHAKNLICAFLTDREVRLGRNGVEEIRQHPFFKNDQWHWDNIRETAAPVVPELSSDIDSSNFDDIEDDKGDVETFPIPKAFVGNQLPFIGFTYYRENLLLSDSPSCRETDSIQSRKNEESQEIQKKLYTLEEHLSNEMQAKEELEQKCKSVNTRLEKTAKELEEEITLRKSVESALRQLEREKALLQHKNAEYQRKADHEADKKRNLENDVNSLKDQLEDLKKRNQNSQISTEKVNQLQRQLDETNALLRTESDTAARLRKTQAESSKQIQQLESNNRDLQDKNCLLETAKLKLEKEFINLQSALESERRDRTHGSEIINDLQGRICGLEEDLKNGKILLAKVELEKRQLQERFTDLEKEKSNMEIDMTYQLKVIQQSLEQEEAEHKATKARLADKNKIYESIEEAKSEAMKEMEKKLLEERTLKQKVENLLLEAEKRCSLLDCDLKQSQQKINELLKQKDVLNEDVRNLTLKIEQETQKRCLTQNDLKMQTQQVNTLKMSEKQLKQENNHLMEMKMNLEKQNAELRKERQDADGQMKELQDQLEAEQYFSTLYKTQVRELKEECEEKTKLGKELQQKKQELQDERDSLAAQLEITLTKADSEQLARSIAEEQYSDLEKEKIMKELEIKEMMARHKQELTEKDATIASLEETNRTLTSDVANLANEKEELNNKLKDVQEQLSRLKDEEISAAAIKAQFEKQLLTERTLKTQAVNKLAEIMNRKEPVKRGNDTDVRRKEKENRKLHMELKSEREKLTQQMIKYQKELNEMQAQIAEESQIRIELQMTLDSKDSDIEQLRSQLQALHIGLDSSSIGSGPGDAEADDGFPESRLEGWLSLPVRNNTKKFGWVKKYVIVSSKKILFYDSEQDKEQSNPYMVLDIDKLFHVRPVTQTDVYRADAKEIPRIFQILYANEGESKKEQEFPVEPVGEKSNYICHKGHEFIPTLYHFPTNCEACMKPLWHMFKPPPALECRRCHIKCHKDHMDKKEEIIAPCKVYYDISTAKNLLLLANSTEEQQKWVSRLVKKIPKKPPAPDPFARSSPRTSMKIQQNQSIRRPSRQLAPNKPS
Assay [5] concerns HK2. Kind of assay: HK2 mitochondrial fraction and phosphorylation (fractionation, Phos-tag immunoblot). It is filed as cell-based. On the procedure: (a) SH-SY5Y treated with either 0.5 μM SR3677 or with DMSO were separated into total cell cytosolic and mitochondrial fractions. Fractions were separated by SDS-PAGE and immunoblotting was performed with anti-HK2 and anti-ATP5A antibodies. (b) The proposed mechanism through which SR3677 increases Parkin recruitment. (c) Cells serum-starved for 2 hours were treated with either DMSO or SR3677 for 10 or 30 minutes prior to harvesting. Lysates were separated by SDS-PAGE and immunoblotting was performed with anti-HK2 and anti-actin antibodies. Samples were also run on Phos-tag gels in parallel and immunoblotting was performed with anti-HK2 antibody. (d) Densitometry analysis was performed to quantify HK2 levels in each sample, followed by (e) normalization to mitochondrial marker, CValpha. Average HK2/CValpha ratios are plotted (n=2 independent experiments). (f) Densitometry analysis was performed on the band indicated by the arrow in (c). The average intensity of the indicated band normalized to actin loading control is expressed[…] (n=3 independent experiments). P-values were determined by paired student's t-test for (b, f), *P<0.05. All error bars represent s.e.m. […]
(Immunoblotting shows a protein as a band on a membrane.)

For the compound `CN(C)CCOc1cc(-c2cn[nH]c2)ccc1NC(=O)[C@@H]1COc2ccccc2O1` [SR3677], the “rank in the kinase inhibitor library screen (rank order by z-score)” value in assay [1] is given as 71/480. Moreover, in assay [2], the “mitochondrial distribution of HK2 following mitochondrial damage” value is listed as “increases the mitochondrial distribution of HK2”. Besides, the “climbing ability of paraquat-treated flies” value in assay [3] (Canton(S), 1 mM SR3677 with 10 mM paraquat) is on record as “restores climbing ability”. Moreover, the “climbing ability with paraquat” value in assay [3] (TH-GAL4, UAS-rok^RNAi flies) is “No further improvement to climbing ability”; in assay [3] (UAS-park^RNAi flies), “improved”. Moreover, the paraquat-induced climbing defects result in assay [3] (ddc-GAL4>UAS-park^RNAi flies) was “no improvement”. Moreover, the ROCK2 inhibition result in assay [4] is given as “selectively inhibits ROCK2”. The “HK2 in the mitochondrial fraction” value in assay [5] (SH-SY5Y cells, 0.5 μM) was “More HK2 was observed in the mitochondrial fraction”. For the same compound, in assay [5] (serum-starved cells, 10 or 30 minutes), the “phosphorylation of HK2 (Phostag gels)” value is given as “Increased phosphorylation of HK2”.
